Entries after “also recorded” stand apart in the source; their conditions may differ.
Columns and labels:
[1] = test system: histone H3 acetylation (AcH3); assay: Western blot of H3 acetylation (AcH3) level; assay type: cell-based, human
From the text: (§1) Western Blot analysis: Equal number of cells was lysed in 2×SDS loading buffer and loaded for immunoblot analysis with different antibodies (Cell Signaling). Anti-β-actin-HRP was from Santa Cruz Biotech. β-actin was used as the loading control for all immunoblot experiments. The results were quantified using ImageJ and normalized to the density of actin in the corresponding samples.

[2] = test system: tumor infiltrating lymphocytes (TILs)
Procedure: The effect of IL-21 and Panobinostat in the clinical-relevant TIL expansion was assessed.
To examine the possible de-differentiating effect of an HDAC inhibitor/IL-21 combination, TILs were untreated or pretreated with SAHA for 24 hours, then subjected to regular REP (irradiated PBMC and LCL cells, anti-CD3 and IL-2), or REP with SAHA/IL-21.
The TILs were cultured from patient melanoma tumors. […] For studies with SAHA, SAHA was used at 1-5 μM.
TILs were cultured in 50% AIM-V, 50% TIL complete medium which contains RPMI1640, 10% human AB serum, 10 mM HEPES, and 2-Mercaptoethanol. […] IL-21 (30 ng/ml) or HDACi SAHA (1-5 μM) or Panobinostat (1-3 nM) was added on day 0, 4 and 7 if included in the expansion. After 14 days, expanded cells were subjected to further analyses.

[3] = test system: tumor antigen-specific CTL lines; assay: REP and mini-REP expansion fold of CTLs; assay type: cell-based, human; conditions: 2 weeks
Procedure: The TILs were cultured from patient melanoma tumors. […] After 14 days, cells were used for further analyses. For studies with SAHA (FIG. 2), SAHA was used at […].
Mini-REP was started scaling down from T25 flasks to 24-well plates accordingly. IL-21 and Panobinostat dose remained unchanged.
To examine the clinical applicability of Panobinostat (Pano) in the setting of antigen-specific ACT, MART1 (M27)-specific effector/effector memory cells generated via the ETC approach were used and expanded in vitro by REP, as previously described (Yee, 2014). Cells were expanded with four different protocols (regular, adding IL-21 alone, adding Pano alone, or IL-21+Pano). […] It was posited that Panobinostat, like SAHA, enabled STAT3 and other transcription factors/cofactors to access binding sites and induce CD28 and CD62L expression.
The TILs were cultured from patient melanoma tumors. […] After 14 days, cells were used for further analyses.

target tumor cells = assay: Chromium release assay (CRA); assay type: cell-based; conditions: effector:tumor 20:1, 4 hours, compared with regular expansion
Procedure: (§2) Chromium Release Assay (CRA): Tumor cells were labeled with Cr51 before being incubated with antigen-specific CTLs at effector:tumor of 20:1 for 4 hours. The Cr51 amount in the supernatants was measured and the killing efficiency was calculated as % killing=100%×(sample average−average of negative control)/(average of positive control average of negative control).
as §2, with “control−average” for “control average”

STAT5 = assay: Western blot of pSTAT5; assay type: cell-based, human; conditions: naïve CD8+ T cells, anti-CD3/CD28 beads, 30 minutes after activation
Procedure: (§3) Polyclonal stimulation of CD8^+ T cells: Naïve CD8^+ T cells (CD8^+CD45RA^+CCR7^+) were flow cytometry-sorted or were isolated using EasySep™ Human Naïve CD8^+ T Cell Enrichment Kit (StemCell). In some experiments, total CD8^+ T cells were negatively selected using EasySep™ Human CD8^+ T Cell Enrichment Kit (StemCell). The purity of the naïve or total CD8^+ T cells was greater than 95% as determined by flow cytometry. CD8^+ T cells were cultured in RPMI 1640 with 10% fetal bovine serum and penicillin/streptomycin. CD8^+ T cells were activated using Dynabeads® Human T-Activator CD3/CD28 for T-Cell Expansion and Activation (Life Technologies) at a bead:cell ratio of 1:1 or together with 30 ng/mL human IL-21 (Peprotech). At the indicated time points, T cells were harvested and beads were removed using a magnet before downstream analysis.
as §1

CD132 (γC) = assay: CD132 surface level on expanded CTLs by flow cytometry; assay type: cell-based, human; conditions: CD8+ gate
From the text: (§4) The expanded TILs/CTLs were also stained with antibodies against CD8 and CD132 and analyzed using the CD8^+ gate. […] In addition, the expanded CTLs were labeled with carboxyfluorescein succinimidyl ester (CFSE) and cultured with IL-2 or IL-15 for 2 days to check cell division. […] (FIG. 4B).
(§5) Flow Cytometry: Cells were stained with antibodies against CD8, CD28, CD62L or CD132. All FACS data were acquired via an LSR II flow cytometer and analyzed via FlowJo software (Tree Star, Inc.).

[4] = test system: MART1 (M27)-specific effector CD8+ T cells; assay: CD28 level on M27-specific effector CD8+ T cells by flow cytometry; assay type: cell-based, human; conditions: activation with M27-pulsed mature dendritic cells, 4 days
Procedure: The present studies were performed to develop a method to reprogram or de-differentiate effector T cells that express CD45RO to central memory T cells that express CD62L and CD28 (FIG. 8). The effect of IL-21 and histone deacetylase inhibitor (HDACi) treatment on central memory markers CD28 and CD62L was evaluated. MART1 (M27)-specific effector CD8^+ T cells were untreated or pretreated with SAHA for 24 hours, followed by activation with M27-pulsed mature dendritic cells in the presence or absence of SAHA/IL-21 for 4 days.
as §5
To assess the effect of SAHA/IL-21 on CD28 expression in the context of a more physiologic, antigen-specific (in contrast to non-specific polyclonal) stimulation, this effect was evaluated on MART1 (M27)-specific effector/effector memory cells generated using peptide-pulsed autologous dendritic cells. MART1 (M27)-specific effector CD8^+ T cells (CD45RO^+, CD28-neg, CD62L-neg) were generated following iterative cycles of in vitro stimulation, tetramer-guided sorting of M27-specific CTL and expansion to uniformity (>95% MART-1-specific effector CTL). First, the effect of SAHA was evaluated on pSTAT3 binding to the CD28 promoter region. […]

human CD8+ T cells = assay: CD28 expression in polyclonally activated human CD8+ T cells; assay type: cell-based
From the text: (§6) IL-21 upregulates CD28 expression on activated human naïve CD8^+ T cells: CD28 is a pivotal costimulatory molecule for naïve T cell activation and memory T cell function. […] To investigate the molecular mechanisms of IL-21-induced CD28 expression, melanoma antigen recognized by T cells (MART1, M27)-specific CTLs were generated in the absence or presence of IL-21 as previously described (Li et al., 2005). […] To further corroborate the findings, sort-purified naïve human CD8^+ T cells (CD45RA^+CCR7^+) from healthy donors were activated with anti-CD3/CD28 beads in the absence or presence of IL-21 and surface CD28 expression was detected by flow cytometry.
as §3, §5
Quantitative real-dime PCR: Total RNA was prepared using Qiagen RNA purification kit. cDNA. was made using Superscript reverse transcriptase and oligo(dT) primers (Life Technology), and gene expression was detected with a Bio-Rad iCycler Optical System using iQ SYBR green real-time PCR kit (Bio-Rad Laboratories, Inc.). The data were normalized to the reference gene RPL13A. RPL13A primer was purchased from Qiagen. Other primer pairs used were: CD28 forward: […] (SEQ ID NO:2), reverse: […] (SEQ ID NO: 3); CD62L forward: […] (SEQ ID NO: 4), reverse: […] (SEQ ID NO: 5); Additional primers included lymphoid enhancer-binding factor 1 (LEFI) forward: […] (SEQ ID NO: 6), reverse: […] (SEQ ID NO: 7); transcription factor 1 (TCF1) forward: […] (SEQ ID NO: 8), reverse: CCTCGACCGCCTCTTCTTC (SEQ ID NO: 9).
Human shRNA Knockdown: Total CD8^+ T cells were isolated and transfected with 5 μg negative control, STAT1 shRNA, or STAT3 shRNA (Dharmacon) using Amaxa human T cell Nucleofector Kit according to the manufacturer's instructions (Lonza). Transfected cells were rested for 1-2 days and live GFP^+ cells were sort-purified for immunoblot analysis or were stimulated for 7 days as previously described before further analysis.

[5] = test system: tumor antigen-specific CTL cells; assay: Intracellular staining of IFN-γ and granzyme B; assay type: cell-based, human; conditions: restimulated with tumor cells
Procedure: Intracellular Staining: The cells were restimulated with tumor cells for 16 hours and stained with antibody against CD8, followed by fixation and staining with antibodies against IFN-γ and granzyme B in permeabilization buffer. The cells were washed and resuspended in FACS buffer before analysis.

CD28 promoter = assay: Chromatin immunoprecipitation (ChIP) on the CD28 promoter; assay type: cell-based, human
Procedure: Chromatin immunoprecipitation (ChIP): ChIP was performed using a ChIP Assay Kit according to the manufacturer's instructions (Millipore). Quantitative real-time PCR was performed with primers: CD28 promoter proximal STAT sites: forward […] (SEQ ID NO:10), reverse […] (SEQ ID NO: 11); distal STAT sites: forward […] (SEQ ID NO: 12), reverse […] (SEQ ID NO: 13); Rabbit IgG was used as a negative control.

STAT3 = assay: Western blot of IL-21-induced pSTAT3; assay type: cell-based, human
Procedure: as §3, §1

M27-specific CTLs = assay: CD28 expression in M27-specific CTLs generated with IL-21; assay type: cell-based, human
From the text: as §6, §5
Quantitative real-dime PCR: Total RNA was prepared using Qiagen RNA purification kit. cDNA. was made using Superscript reverse transcriptase and oligo(dT) primers (Life Technology), and gene expression was detected with a Bio-Rad iCycler Optical System using iQ SYBR green real-time PCR kit (Bio-Rad Laboratories, Inc.). The data were normalized to the reference gene RPL13A. RPL13A primer was purchased from Qiagen. Other primer pairs used were: CD28 forward: […] (SEQ ID NO:2), reverse: […] (SEQ ID NO: 3); CD62L forward: […] […]

expanded CTLs = assay: CFSE proliferation of expanded CTLs with IL-2 or IL-15; assay type: cell-based, human; conditions: 2 days
Procedure: as §4
Central memory function associated with the IL-21/Pano-induced CD28^+CD62L^+ population was evaluated by the ability of these central memory-like T cells to undergo homeostatic proliferation in response to IL-7 and IL-15. ETC cells expanded with four different protocols (regular, adding IL-21 alone, adding Pano alone, or IL-21+Pano) were labeled with CFSE and cultured with IL-2, IL-7 or IL-15 for 2 days. […] Adding Panobinostat alone to REP increased cell proliferation in response to IL-15 but not to IL-2. […] Since IL-2 and IL-15 share CD132 (γC) and CD122 receptor subunits, CD132 and CD122 levels were assessed on the surface of these cells.

STAT1 = assay: Western blot of pSTAT1; assay type: cell-based, human; conditions: naïve CD8+ T cells, anti-CD3/CD28 beads, 30 minutes after activation
Procedure: as §3, §1

Cc1[nH]c2ccccc2c1CCNCc1ccc(/C=C/C(=O)NO)cc1 [Panobinostat]
Panobinostat dose that increased AcH3 level [1]: ≥ 0.5 nM
cytotoxicity ([2]; screen of HDACi): minimal cytotoxicity

IL-21: Human Interleukin 21, protein cytokine of 162 amino acids (SEQ ID NO:1)
yield of cell expansion ([3]; mini-REP): dramatically increased
expansion yield / expansion fold ([3]; regular REP): similar
tumor cell killing (target tumor cells): enhanced
STAT5 phosphorylation (STAT5): weak
CD132 (γ chain) surface expression (CD132 (γC)): upregulate; also recorded: significantly increased
CD28 expression [4]: slightly increased; also recorded: not observed
IL-21-mediated enhancement of CD28 expression (human CD8+ T cells; CD8+ T cells from Job's syndrome patients): completely abrogated
IL-21-induced CD28 protein and mRNA upregulation diminished (human CD8+ T cells; STAT1 shRNA-transfected CD8+ T cells): not
IL-21-induced CD28 protein and mRNA upregulation (human CD8+ T cells; STAT3 shRNA-transfected CD8+ T cells): diminished
CD28 expression (human CD8+ T cells; activated TEMRA CD8+ T cells): minimally upregulated
CD28 mRNA level (human CD8+ T cells; naïve CD8+ T cells, anti-CD3/CD28): greatly augmented
CD28 surface level expression (human CD8+ T cells; naïve CD8+ T cells, anti-CD3/CD28 beads): significantly increased; also recorded: upregulates
expression of CD28 at protein and mRNA levels (human CD8+ T cells; total CD8+ T cells from healthy donors): increased
IFNγ and granzyme B expression [5]: augmented
enrichment of STAT3 at proximal and distal CD28 promoter regions (CD28 promoter; anti-CD3/CD28 and IL-21 relative to anti-CD3/CD28 alone): 2-3 fold
IL-21-induced STAT3 phosphorylation levels, naïve compared with effector CD8+ T-cells (STAT3): comparable
STAT3 phosphorylation (STAT3; effector CD8+ T cells): induced STAT3 phosphorylation
STAT3 phosphorylation (STAT3; naïve CD8+ T cells, anti-CD3/CD28 beads, 30 minutes after activation): strong
CD28 mRNA level (M27-specific CTLs): greatly augmented
CD28 expression (M27-specific CTLs; compared with cells generated in the absence of IL-21): significantly higher
proliferation in response to IL-2 (expanded CTLs): enhanced
proliferation in response to IL-15 (expanded CTLs): enhanced
STAT1 phosphorylation (STAT1): strong

O=C(CCCCCCC(=O)Nc1ccccc1)NO [SAHA, Suberoylanilide Hydroxamic Acid]
AcH3 level by western blot ([1]; H3 and β-actin as loading controls): dose-dependent increase; also recorded: increases H3 acetylation in a dose-dependent manner
SAHA concentration that augmented AcH3 level ([1]; effector CD8+ T cells): ≥ 1 µM
SAHA concentration that could augment AcH3 levels ([1]; titration study, effector CD8+ T cells): ≥ 1 µM
CD28 expression [4]: upregulated
AcH3 level on the CD28 promoter (CD28 promoter; M27-specific effector CD8+ T cells, SAHA 24 hours): significantly increased
IL-21-induced STAT3 (pSTAT3) binding to the CD28 promoter (CD28 promoter; SAHA 24 hours, then IL-21 30 minutes): allowing IL-21-induced STAT3 to bind to the same DNA region; also recorded: increased; also recorded: allows IL-21-induced pSTAT3 to access the CD28 promoter
cell death in REP culture [2]: caused dramatic cell death
viable cells at the end of REP [2]: few viable cells

From patent publication US12173317B2, “Use of histone modifiers to reprogram effector T cells” (Board of Regents, The University of Texas System, priority 2018, dated 2024)
